Experimental data reported in patent US20200199501A1, “SOLVENT COMPOSITIONS CONTAINING 1,2,2-TRIFLUORO-1-TRIFLUOROMETHYLCYCLOBUTANE (TFMCB)” (Honeywell International Inc., priority 2018, published 2020).

Experiment: Acute inhalation toxicity (OECD Guideline No. 403)
Settings: in vivo, inhaled, OECD Guideline No. 403 (2009), Method B.2 of Commission Regulation (EC) No. 440/2008
Source text: LC50 is a measure of the acute toxicity of a compound. The acute inhalation toxicity of a compound can be assessed using the method described in the OECD Guideline for Testing of Chemicals No. 403 “Acute Inhalation Toxicity” (2009), Method B.2. (Inhalation) of Commission Regulation (EC) No. 440/2008.

Question: For `FC(F)(F)C1(F)CCC1(F)F` (stereo not shown) [TFMCB, 1,2,2-trifluoro-1-trifluoromethylcyclobutane], which LC50 is on record?
Answer: > 19.1 µg/mL
